Experimental data taken from US12570648B2, “6,7-dihydro-5H-pyrido[2,3-c]pyridazine derivatives and related compounds as Bcl-xL protein inhibitors and pro-apoptotic agents for treating cancer” (LES LABORATOIRES SERVIER, priority 2019, dated 2026).

Tests used:
MOLT-4 cells = assay: MOLT-4 cell viability using MTT assay; format: cell-based; conditions: Homo sapiens, MOLT-4, 48 h, 48 h exposure
Description: MTT colorimetric assay is based on the mitochondrial reduction of tetrazolium salt by living cells.
Cells were cultured at 37° C. in a humidified atmosphere containing 5% CO2. […] At the end of incubation time, 15 μL of MTT solution (5 mg/ml) were added per well and the cells were incubated for another 4 h. […] IC50s were calculated using standard four-parametric curve fitting.

[1] = target: His-His-(EK)-hsBCLXL(2-197)[N197C] (Homo sapiens (Human), UniProt Q07817, N197C); assay: Fluorescence quenching assay; format: binding; conditions: 1 nM Cy5-labelled protein, 400 nM PUMA peptide, 2 hours at 23° C.; KI determined from IC50
Sequence of His-His-(EK)-hsBCLXL(2-197)[N197C] (Q07817 2-197 N197C): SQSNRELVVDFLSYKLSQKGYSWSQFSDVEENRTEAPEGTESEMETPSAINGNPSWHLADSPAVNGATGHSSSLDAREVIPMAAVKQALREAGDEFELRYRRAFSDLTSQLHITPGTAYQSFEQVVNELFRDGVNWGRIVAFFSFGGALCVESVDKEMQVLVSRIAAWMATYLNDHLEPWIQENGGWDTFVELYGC
Summary of the method: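 Cy5-labelled BCL-xL (1 nM) with TQ5WS quencher-labelled PUMA peptide (400 nM); displacement by compound (11-point dilution) raises fluorescence. Buffer 10 mM HEPES, 150 mM NaCl, 0.05% Tween 20, pH 7.4, 5% DMSO; 2 h at 23° C, Ex 620/Em 680 nm. Ki derived from IC50.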

SMILES | IC50 (MOLT-4 cells) [nM] | Ki [1] [nM]
Cc1c(Nc2nc3ccccc3s2)nnc2c1CCCN2c1ccc(-c2cnn(CC34CC5(C)CC(C)(C3)CC(OCCNCCCCO)(C5)C4)c2C)c(C(=O)O)n1 [Example 132, 6-[3-(1,3-benzothiazol-2-ylamino)-4-methyl-6,7-dihydro-5H-pyrido[2,3-c]pyridazin-8-yl]-3-[1-[[3-[2-(4-hydroxybutylamino)ethoxy]-5,7-dimethyl-1-adamantyl]methyl]-5-methyl-pyrazol-4-yl]pyridine-2-carboxylic acid] | 1.32 | 0.002
Cc1c(Nc2nc3ccccc3s2)nnc2c1CCCN2c1ccc(-c2cnn(CC34CC5(C)CC(C)(C3)CC(OCCNCC(CO)CO)(C5)C4)c2C)c(C(=O)O)n1 [Example 133, 6-[3-(1,3-benzothiazol-2-ylamino)-4-methyl-6,7-dihydro-5H-pyrido[2,3-c]pyridazin-8-yl]-3-[1-[[3-[2-[[3-hydroxy-2-(hydroxymethyl)propyl]amino]ethoxy]-5,7-dimethyl-1-adamantyl]methyl]-5-methyl-pyrazol-4-yl]pyridine-2-carboxylic acid] | 1.68 | 0.0021
Cc1c(Nc2nc3ccccc3s2)nnc2c1CCCN2c1ccc(-c2cnn(CC34CC5(C)CC(C)(C3)CC(OCCN(CCO)CCO)(C5)C4)c2C)c(C(=O)O)n1 [Example 134, 6-[3-(1,3-benzothiazol-2-ylamino)-4-methyl-6,7-dihydro-5H-pyrido[2,3-c]pyridazin-8-yl]-3-[1-[[3-[2-[bis(2-hydroxyethyl)amino]ethoxy]-5,7-dimethyl-1-adamantyl]methyl]-5-methyl-pyrazol-4-yl]pyridine-2-carboxylic acid] | 1.57 | 0.0028
Cc1c(Nc2nc3ccccc3s2)nnc2c1CCCN2c1ccc(-c2cnn(CC34CC5(C)CC(C)(C3)CC(OCCNC(CO)CO)(C5)C4)c2C)c(C(=O)O)n1 [Example 135, 6-[3-(1,3-benzothiazol-2-ylamino)-4-methyl-6,7-dihydro-5H-pyrido[2,3-c]pyridazin-8-yl]-3-[1-[[3-[2-[[2-hydroxy-1-(hydroxymethyl)ethyl]amino]ethoxy]-5,7-dimethyl-1-adamantyl]methyl]-5-methyl-pyrazol-4-yl]pyridine-2-carboxylic acid] | 3.05 | 0.0018
Cc1c(Nc2nc3ccccc3s2)nnc2c1CCCN2c1ccc(-c2cnn(CC34CC5(C)CC(C)(C3)CC(OCCNCCOCCO)(C5)C4)c2C)c(C(=O)O)n1 [Example 136, 6-[3-(1,3-benzothiazol-2-ylamino)-4-methyl-6,7-dihydro-5H-pyrido[2,3-c]pyridazin-8-yl]-3-[1-[[3-[2-[2-(2-hydroxyethoxy)ethylamino]ethoxy]-5,7-dimethyl-1-adamantyl]methyl]-5-methyl-pyrazol-4-yl]pyridine-2-carboxylic acid] | 1.25 | 0.0014
CC(=O)N(C)CC#Cc1ccc(OCCCc2sc(N3CCCc4c3nnc(Nc3nc5ccccc5s3)c4C)nc2C(=O)O)c(F)c1 [Example 139, 5-[3-[4-[3-[acetyl(methyl)amino]prop-1-ynyl]-2-fluoro-phenoxy]propyl]-2-[3-(1,3-benzothiazol-2-ylamino)-4-methyl-6,7-dihydro-5H-pyrido[2,3-c]pyridazin-8-yl]thiazole-4-carboxylic acid] | 0.995 | 0.02
Cc1c(Nc2nc3ccccc3s2)nnc2c1CCCN2c1ccc(-c2cnn(CC34CC5(C)CC(C)(C3)CC(OCCN(CCCCO)CCCCO)(C5)C4)c2C)c(C(=O)O)n1 [Example 140, 6-[3-(1,3-benzothiazol-2-ylamino)-4-methyl-6,7-dihydro-5H-pyrido[2,3-c]pyridazin-8-yl]-3-[1-[[3-[2-[bis(4-hydroxybutyl)amino]ethoxy]-5,7-dimethyl-1-adamantyl]methyl]-5-methyl-pyrazol-4-yl]pyridine-2-carboxylic acid] | 2.85 | 0.0032
Cc1c(Nc2nc3ccccc3s2)nnc2c1CCCN2c1nc(C(=O)O)c(CCCOc2ccc(C#CCN(C)C)cc2)s1 [Example 141, 2-[3-(1,3-benzothiazol-2-ylamino)-4-methyl-6,7-dihydro-5H-pyrido[2,3-c]pyridazin-8-yl]-5-[3-[4-[3-(dimethylamino)prop-1-ynyl]phenoxy]propyl]thiazole-4-carboxylic acid] | 0.098 | 0.0085
Cc1c(Nc2nc3ccccc3s2)nnc2c1CCCN2c1ccc(-c2cnn(CC34CC5(C)CC(C)(C3)CC(OCCN3CCOCC3)(C5)C4)c2C)c(C(=O)O)n1 [Example 142, 6-[3-(1,3-benzothiazol-2-ylamino)-4-methyl-6,7-dihydro-5H-pyrido[2,3-c]pyridazin-8-yl]-3-[1-[[3,5-dimethyl-7-(2-morpholinoethoxy)-1-adamantyl]methyl]-5-methyl-pyrazol-4-yl]pyridine-2-carboxylic acid] | 0.0513 | 0.0026
Cc1c(Nc2nc3ccccc3s2)nnc2c1CCCN2c1ccc(-c2cnn(CC34CC5(C)CC(C)(C3)CC(OCCN3CCCCC3)(C5)C4)c2C)c(C(=O)O)n1 [Example 143, 6-[3-(1,3-benzothiazol-2-ylamino)-4-methyl-6,7-dihydro-5H-pyrido[2,3-c]pyridazin-8-yl]-3-[1-[[3,5-dimethyl-7-[2-(1-piperidyl)ethoxy]-1-adamantyl]methyl]-5-methyl-pyrazol-4-yl]pyridine-2-carboxylic acid] | 0.0546 | 0.0014
Cc1c(Nc2nc3ccccc3s2)nnc2c1CCCN2c1ccc(-c2cnn(CC34CC5(C)CC(C)(C3)CC(OCCN3CCNCC3)(C5)C4)c2C)c(C(=O)O)n1 [Example 144, 6-[3-(1,3-benzothiazol-2-ylamino)-4-methyl-6,7-dihydro-5H-pyrido[2,3-c]pyridazin-8-yl]-3-[1-[[3,5-dimethyl-7-(2-piperazin-1-ylethoxy)-1-adamantyl]methyl]-5-methyl-pyrazol-4-yl]pyridine-2-carboxylic acid] | 13.2 | 0.0014
Cc1c(Nc2nc3ccccc3s2)nnc2c1CCCN2c1ccc(-c2cnn(CC34CC5(C)CC(C)(C3)CC(OCCN3CCCCCC3)(C5)C4)c2C)c(C(=O)O)n1 [Example 145, 3-[1-[[3-[2-(azepan-1-yl)ethoxy]-5,7-dimethyl-1-adamantyl]methyl]-5-methyl-pyrazol-4-yl]-6-[3-(1,3-benzothiazol-2-ylamino)-4-methyl-6,7-dihydro-5H-pyrido[2,3-c]pyridazin-8-yl]pyridine-2-carboxylic acid] | 0.265 | 0.0018
Cc1c(Nc2nc3ccccc3s2)nnc2c1CCCN2c1ccc(-c2cnn(CC34CC5(C)CC(C)(C3)CC(OCCN3CCN(C(C)C)CC3)(C5)C4)c2C)c(C(=O)O)n1 [Example 146, 6-[3-(1,3-benzothiazol-2-ylamino)-4-methyl-6,7-dihydro-5H-pyrido[2,3-c]pyridazin-8-yl]-3-[1-[[3-[2-(4-isopropylpiperazin-1-yl)ethoxy]-5,7-dimethyl-1-adamantyl]methyl]-5-methyl-pyrazol-4-yl]pyridine-2-carboxylic acid] | 0.247 | 0.0032
Cc1c(Nc2nc3ccccc3s2)nnc2c1CCCN2c1nc(C(=O)O)c(CCCOc2ccc(C#CCNCCCO)cc2F)s1 [Example 147, 2-[3-(1,3-benzothiazol-2-ylamino)-4-methyl-6,7-dihydro-5H-pyrido[2,3-c]pyridazin-8-yl]-5-[3-[2-fluoro-4-[3-(3-hydroxypropylamino)prop-1-ynyl]phenoxy]propyl]thiazole-4-carboxylic acid] | 0.852 | 0.0046
